Earlier results, collected in paper PMC8303886, “Polyphenylglyoxamide-Based Amphiphilic Small Molecular Peptidomimetics as Antibacterial Agents with Anti-Biofilm Activity” (International Journal of Molecular Sciences, 2021).

Tested on: pre-established S. aureus biofilms
Parameters: method as in PMID 27405275
Conditions: 4× MIC; cited from earlier work

## LL-37: cathelicidin (LL-37), antimicrobial peptide in phase IIb clinical trials for the treatment of chronic leg ulcers (LLGDFFRKSKEKIGKEFKRIVQRIKDFLRNLVPRTES; Antibacterial peptide LL-37; UniProt P49913 134-170, looked up)
  disruption of pre-established S. aureus biofilms: about 40%
